Measured values as given in patent publication US20180318311A1, “TRICYCLIC 2-QUINOLINONES AS ANTIBACTERIALS” (priority 2017, published 2018).
In brackets after ≈: the same amount, converted by molar mass. Where two headings read alike, the source gives them in different places.

How the values were obtained:
Type in all cases: cell-based
[1] = tested on: S. pneumoniae ATCC 25922 (NB07001); assay: MIC by broth microdilution, S. pneumoniae NB07001; conditions: Streptococcus pneumoniae, read-out: Antibacterial activity (MIC) NB07001
Procedure: (§1) Bacterial isolates were cultivated from −80° C. frozen stocks by overnight passages at 35° C. in ambient air on Mueller-Hinton agar plates (MHA, Becton Dickinson, Franklin Lakes, NB) with the exception of S. pneumoniae which was grown overnight at 35° C. in the presence of 5% CO2 on blood agar plates (tryptic soy agar with 5% sheep blood (Thermo Scientific, Waltham, Mass.) . The following quality control and wild type strains were obtained from the American Type Culture Collection (ATCC; Rockville, Md.) and are coded in the Novartis strain collection as indicated: E. coli ATCC 25922 (NB27001), E. faecalis ATCC 29212 (NB04001), S. aureus ATCC 49951 (NB01006) and S. pneumoniae ATCC […] (NB07001). […] P. aeruginosa NB52019, obtained from Queen's University (Kingston, Ontario, Canada), is the wild-type PAO1 strain.
(§2) Minimal Inhibitory Concentrations (MIC) were determined by the broth microdilution method in accordance with Clinical and Laboratories Institute (CLSI) guidelines. In brief, fresh bacterial overnight cultures were re-suspended in sterile saline, adjusted to a 0.5 McFarland turbidity standard and then diluted to yield a final inoculum of approximately 5×10^5 colony-forming units (CFU)/mL. All bacterial suspensions were prepared in cation adjusted Mueller-Hinton Broth (CAMHB; Becton Dickinson, Franklin Lakes, N.J.;) with the exception of S. pneumoniae which was prepared in CAMHB supplemented with 5% lysed horse blood (Hardy Diagnostics, Santa Maria, Calif.). Two-fold serial dilutions of compounds were prepared in 100% dimethyl sulfoxide (DMSO) at 100-fold the highest final assay concentration; the resulting dilution series of compounds were diluted 1:10 with sterile water. Ten μL of the drug dilution series in 10% DMSO was transferred to microtiter wells and 90 μL of bacterial suspension was inoculated into the wells. All inoculated microdilution trays were incubated in ambient air at 35° C. for 20 hours. Following incubation, assay plates were read in a microtiter plate reader at 600 nm and visually inspected to confirm the MIC endpoint well with the OD value. The lowest concentration of the compound that prevented visible growth was recorded as the MIC (in μg/mL).

[2] = tested on: S. aureus NB01080 fluoroquinolone-resistant clinical isolate; assay: MIC by broth microdilution, S. aureus NB01080; conditions: Staphylococcus aureus, CAMHB, 35° C., 20 hours, read-out: Antibacterial activity (MIC) NB01080
Procedure: as §1, §2

[3] = tested on: S. aureus NB01006-AVR005, gyrA (S84L), grlA (580F) and grlB (E471K); assay: microbe, parasite or virus in culture; conditions: Staphylococcus aureus, 20 h, read-out: Antibacterial activity (MIC) NB01006-AVR005
Procedure: as §1, §2

[4] = tested on: E. faecalis ATCC 29212 (NB04001); assay: MIC by broth microdilution, E. faecalis NB04001; conditions: Enterococcus faecalis, ATCC29212, CAMHB, 35° C., 20 hours, read-out: Antibacterial activity (MIC) NB04001
Procedure: as §1, §2

[5] = tested on: E. coli ATCC 25922 (NB27001); assay: MIC by broth microdilution, E. coli NB27001; conditions: Escherichia coli, ATCC25922, CAMHB, 35° C., 20 hours, read-out: Antibacterial activity (MIC) NB27001
Procedure: as §1, §2

[6] = tested on: S. aureus ATCC 49951 (NB01006); assay: MIC by broth microdilution, S. aureus NB01006; conditions: Staphylococcus aureus, ATCC49951, CAMHB, 35° C., 20 hours, read-out: Antibacterial activity (MIC) NB01006
Procedure: as §1, §2

[7] = tested on: P. aeruginosa NB52019, wild-type PAO1 strain; assay: MIC by broth microdilution, P. aeruginosa NB52019; conditions: Pseudomonas aeruginosa, CAMHB, 35° C., 20 hours, read-out: Antibacterial activity (MIC) NB52019
Procedure: as §1, §2

SMILES	MIC ([1]; ATCC25922, S. pneumoniae, CAMHB supplemented with 5% lysed horse blood, 35° C., 20 hours) [µg/mL]	MIC [2] [µg/mL]	MIC [3] [µg/mL]	MIC [4] [µg/mL]	MIC [5] [µg/mL]	MIC [6] [µg/mL]	MIC [7] [µg/mL]	MIC ([1]; ATCC25922, 20 h) [µg/mL]
C[C@H]1COc2c(N3CC[C@@H](C4(N)CC4)C3)c(F)cc3cc(C(=O)O)c(=O)n1c23.Cl [Example 1.1, (S)-10-((R)-3-(1-aminocyclopropyl)pyrrolidin-1-yl)-9-fluoro-3-methyl-5-oxo-2,3-dihydro-5H-[1,4]oxazino[2,3,4-ij]quinoline-6-carboxylic acid hydrochloride salt]	< 1	< 1	1 to 32	< 1	1 to 32	< 1	> 32	
C[C@H]1COc2c(N3CC[C@H](N)C3)c(F)cc3cc(C(=O)O)c(=O)n1c23 [Example 1.2, (S)-10-((S)-3-aminopyrrolidin-1-yl)-9-fluoro-3-methyl-5-oxo-2,3-dihydro-5H-[1,4]oxazino[2,3,4-ij]quinoline-6-carboxylic acid]		> 32	> 32	1 to 32 (≈ 2.88 to 92.1 µM)	1 to 32 (≈ 2.88 to 92.1 µM)	1 to 32 (≈ 2.88 to 92.1 µM)	1 to 32 (≈ 2.88 to 92.1 µM)	1 to 32 (≈ 2.88 to 92.1 µM)
C[C@H]1COc2c(N3CC4CC4(N)C3)c(F)cc3cc(C(=O)O)c(=O)n1c23 (stereo partly drawn) [Example 1.3, (3S)-10-(1-amino-3-azabicyclo[3.1.0]hexan-3-yl)-9-fluoro-3-methyl-5-oxo-2,3-dihydro-5H-[1,4]oxazino[2,3,4-ij]quinoline-6-carboxylic acid]		1 to 32 (≈ 2.78 to 89 µM)	1 to 32 (≈ 2.78 to 89 µM)	1 to 32 (≈ 2.78 to 89 µM)	1 to 32 (≈ 2.78 to 89 µM)	< 1	> 32	1 to 32 (≈ 2.78 to 89 µM)
C[C@H]1COc2c(N3CCN(C)CC3)c(F)cc3cc(C(=O)O)c(=O)n1c23 [Example 1.4, (S)-9-fluoro-3-methyl-10-(4-methylpiperazin-1-yl)-5-oxo-2,3-dihydro-5H-[1,4]oxazino[2,3,4-ij]quinoline-6-carboxylic acid]		> 32	> 32	> 32	1 to 32 (≈ 2.77 to 88.6 µM)	1 to 32 (≈ 2.77 to 88.6 µM)	> 32	> 32
C[C@H](N)[C@@H]1CCN(c2c(F)cc3cc(C(=O)O)c(=O)n4c3c2OC[C@@H]4C)C1 [Example 1.5, (S)-10-((R)-3-((S)-1-aminoethyl)pyrrolidin-1-yl)-9-fluoro-3-methyl-5-oxo-2,3-dihydro-5H-[1,4]oxazino[2,3,4-ij]quinoline-6-carboxylic acid]		< 1	1 to 32 (≈ 2.66 to 85.2 µM)	< 1	1 to 32 (≈ 2.66 to 85.2 µM)	< 1	1 to 32 (≈ 2.66 to 85.2 µM)	< 1
C[C@H]1COc2c(N3CC[C@H](O)C3)c(F)cc3cc(C(=O)O)c(=O)n1c23 [Example 1.6, (S)-9-fluoro-10-((S)-3-hydroxypyrrolidin-1-yl)-3-methyl-5-oxo-2,3-dihydro-5H-[1,4]oxazino[2,3,4-ij]quinoline-6-carboxylic acid]		1 to 32 (≈ 2.87 to 91.9 µM)	> 32	1 to 32 (≈ 2.87 to 91.9 µM)	1 to 32 (≈ 2.87 to 91.9 µM)	< 1	> 32	1 to 32 (≈ 2.87 to 91.9 µM)
C[C@H]1COc2c(N3CCC(=C(Cl)CO)CC3)c(F)cc3cc(C(=O)O)c(=O)n1c23 [Example 1.8, (S)-10-(4-(1-chloro-2-hydroxyethylidene)piperidin-1-yl)-9-fluoro-3-methyl-5-oxo-2,3-dihydro-5H-[1,4]oxazino[2,3,4-ij]quinoline-6-carboxylic acid]		< 1	1 to 32 (≈ 2.36 to 75.7 µM)	< 1	> 32	< 1	> 32	< 1
C[C@H]1COc2c(N3CCC(C4(N)COC4)C3)c(F)cc3cc(C(=O)O)c(=O)n1c23 (stereo partly drawn) [Example 1.9, (3S)-10-(3-(3-aminooxetan-3-yl)pyrrolidin-1-yl)-9-fluoro-3-methyl-5-oxo-2,3-dihydro-5H-[1,4]oxazino[2,3,4-ij]quinoline-6-carboxylic acid]		> 32	> 32	> 32	> 32	1 to 32 (≈ 2.48 to 79.3 µM)	> 32	1 to 32 (≈ 2.48 to 79.3 µM)
